IC50 and efflux ratio data for 22 compounds are collected here from US12655142B2 (Merck Patent GmbH, priority 2019, dated 2026).

SMILES strings stand for the structures.

Broadly, the efflux ratio is the permeability from basolateral to apical divided by that in the opposite direction, in the common usage.

The target of data set [1] is T1, GIST430/654 cell line expressing mutated constitutively active cKIT receptor tyrosine kinase (Δ560-576 deletion and V654A point mutation) (Homo sapiens, UniProt P10721, DEL560-576/V654A).
T1 construct: endogenous in cells; host or cells: GIST430/654 cells
Put plainly: Cellular cKIT autophosphorylation (phospho-Y307-cKIT, Luminex bead assay) in GIST430/654 cells. The data set is classed as cell-based. As to conditions: compounds 45 min, read-out: GIST 430/654 IC50. The essentials: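 Phospho-Y307 cKIT in lysates was measured on a Luminex bead assay, with total-cKIT capture overnight at 4 °C and phosphospecific plus PE secondary detection. Cells had 45 min exposure to a compound dilution series the day after plating: GIST430 (Δ560-576) or GIST430/654 (Δ560-576/V654A, grown with 100 nM imatinib). IC50 values are relative to 0.3% DMSO-treated cells.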

In a further data set the target is T2, c-Kit(V654A) (Homo sapiens, UniProt P10721, V654A).
T2 construct: recombinant human c-Kit, amino acids 544-end containing the V654A mutation; GST (N)
Put plainly: c-Kit(V654A) assay (33P-ATP filter binding kinase assay). It is filed as biochemical. To be noted: recombinant human c-Kit aa 544-end V654A, ATP 200 μM. Summed up:
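Radiometric filter-binding read-out: substrate 33P incorporation counted by scintillation after P30 filtermat washes in 75 mM phosphoric acid and methanol. Enzyme: N-GST recombinant human c-Kit aa 544-end carrying V654A.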

The nature of data set [2]: Determination of Efflux-Ratio (ER) in Caco-2 cells. To be noted: human, Caco-2, pH 7.4. (Caco-2 monolayers are a common model of the intestinal barrier.)

T1 sequence (P10721 with tags, fused parts or gaps DEL560-576/V654A): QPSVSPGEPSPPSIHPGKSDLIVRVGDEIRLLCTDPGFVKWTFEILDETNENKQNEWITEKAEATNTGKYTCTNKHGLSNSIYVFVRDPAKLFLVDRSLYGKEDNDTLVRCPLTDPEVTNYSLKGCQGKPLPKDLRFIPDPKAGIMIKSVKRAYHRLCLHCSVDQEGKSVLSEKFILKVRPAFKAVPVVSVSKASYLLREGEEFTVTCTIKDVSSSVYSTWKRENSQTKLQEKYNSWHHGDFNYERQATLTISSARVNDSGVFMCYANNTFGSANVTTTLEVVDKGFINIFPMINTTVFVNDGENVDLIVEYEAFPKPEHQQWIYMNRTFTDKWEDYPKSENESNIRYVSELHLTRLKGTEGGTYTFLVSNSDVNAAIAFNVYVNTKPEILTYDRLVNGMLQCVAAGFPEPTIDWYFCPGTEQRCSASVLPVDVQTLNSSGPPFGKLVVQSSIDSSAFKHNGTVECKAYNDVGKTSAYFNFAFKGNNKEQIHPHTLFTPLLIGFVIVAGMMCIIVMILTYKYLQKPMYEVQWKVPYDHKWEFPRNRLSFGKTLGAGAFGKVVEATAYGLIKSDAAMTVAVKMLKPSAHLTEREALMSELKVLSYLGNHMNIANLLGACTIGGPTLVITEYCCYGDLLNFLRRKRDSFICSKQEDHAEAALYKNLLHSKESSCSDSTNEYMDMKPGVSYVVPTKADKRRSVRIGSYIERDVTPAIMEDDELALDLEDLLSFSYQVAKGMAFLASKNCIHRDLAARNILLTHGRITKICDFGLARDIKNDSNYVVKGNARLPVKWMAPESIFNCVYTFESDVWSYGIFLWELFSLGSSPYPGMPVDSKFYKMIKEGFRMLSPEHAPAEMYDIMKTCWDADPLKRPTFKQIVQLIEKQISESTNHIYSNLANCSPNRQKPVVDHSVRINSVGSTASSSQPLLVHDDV
T2 sequence (P10721 544-976 V654A): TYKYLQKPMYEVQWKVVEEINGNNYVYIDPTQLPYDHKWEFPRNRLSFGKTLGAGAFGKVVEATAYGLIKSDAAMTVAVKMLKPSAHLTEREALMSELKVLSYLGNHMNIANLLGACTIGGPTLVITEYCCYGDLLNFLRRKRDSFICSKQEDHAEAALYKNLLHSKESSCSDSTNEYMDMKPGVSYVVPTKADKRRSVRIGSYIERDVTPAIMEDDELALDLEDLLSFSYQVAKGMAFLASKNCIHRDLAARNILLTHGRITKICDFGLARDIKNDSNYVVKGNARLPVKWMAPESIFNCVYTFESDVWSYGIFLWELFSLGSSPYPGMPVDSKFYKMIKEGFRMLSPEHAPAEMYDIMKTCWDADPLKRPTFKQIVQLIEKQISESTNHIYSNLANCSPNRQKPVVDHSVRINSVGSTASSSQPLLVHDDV

Turning to `Cn1cc(-c2ccc(CNc3cc(-c4cnc5cc(OCCN6CCN7CCOCC7C6)ccn45)ncn3)cc2)cn1` (stereo not drawn) [A201, (6-{7-[2-(hexahydro-pyrazino[2,1-c][1,4]oxazin-8-yl)-ethoxy]-imidazo[1,2-a]pyridin-3-yl}-pyrimidin-4-yl)-[4-(1-methyl-1H-pyrazol-4-yl)-benzyl]-amine], the IC50 was 99 nM in data set [1] and 13 nM at c-Kit(V654A). For the same compound, the efflux ratio at 2 h, 1 μM in data set [2] is < 15.
For the compound `Cn1cc(-c2ccc(CNc3cc(-c4cnc5cc(OCCN6CCOCC(F)(F)C6)ccn45)ncn3)cc2)cn1` [A200, (6-{7-[2-(6,6-difluoro-[1,4]oxazepan-4-yl)-ethoxy]-imidazo[1,2-a]pyridin-3-yl}-pyrimidin-4-yl)-[4-(1-methyl-1H-pyrazol-4-yl)-benzyl]-amine], the IC50 amounted to 190 nM in data set [1] and 27 nM on c-Kit(V654A). The efflux ratio at 2 h, 1 μM in data set [2] is < 15.
Regarding `Cn1ncc(-c2ccc(CNc3cc(-c4cnc5cc(OCCC6CCNC6)ccn45)ncn3)cc2)n1` (stereo not drawn) [A176, [4-(2-methyl-2H-[1,2,3]triazol-4-yl)-benzyl]-{6-[7-(2-pyrrolidin-3-yl-ethoxy)-imidazo[1,2-a]pyridin-3-yl]-pyrimidin-4-yl}-amine], the values for the IC50 (in data set [1]; at c-Kit(V654A)) were 84 nM and 3.2 nM, respectively. In data set [2], the efflux ratio at 2 h, 1 μM is > 50.
As for `Cn1cc(-c2ccc(CNc3cc(-c4cnc5cc(OCC6CCN(CC(F)F)CC6)ccn45)ncn3)cc2)cn1` [A192, (6-{7-[1-(2,2-difluoro-ethyl)-piperidin-4-ylmethoxy]-imidazo[1,2-a]pyridin-3-yl}-pyrimidin-4-yl)-[4-(1-methyl-1H-pyrazol-4-yl)-benzyl]-amine], the IC50 is 67 nM in data set [1] and 28 nM on c-Kit(V654A). Besides, the efflux ratio at 2 h, 1 μM in data set [2] was < 15.
As to `Cn1cc(-c2ccc(CNc3cc(-c4cnc5cc(OCCN6CCN(C7CC7)CC6)ccn45)ncn3)cc2)cn1` [A197, (6-{7-[2-(4-cyclopropyl-piperazin-1-yl)-ethoxy]-imidazo[1,2-a]pyridin-3-yl}-pyrimidin-4-yl)-[4-(1-methyl-1H-pyrazol-4-yl)-benzyl]-amine], the IC50 came out at 150 nM in data set [1] and 12 nM on c-Kit(V654A). In addition, in data set [2], the efflux ratio at 2 h, 1 μM was < 15.
The corresponding values for `COC1(C)CCN(CCOc2ccn3c(-c4cc(NCc5ccc(-c6cnn(C)c6)cc5)ncn4)cnc3c2)CC1` [A220, (6-{7-[2-(4-methoxy-4-methyl-piperidin-1-yl)-ethoxy]-imidazo[1,2-a]pyridin-3-yl}-pyrimidin-4-yl)-[4-(1-methyl-1H-pyrazol-4-yl)-benzyl]-amine] are 140 nM, 11 nM and < 15.
In the same order, the values of `Cn1cc(-c2ccc(CNc3cc(-c4cnc5cc(N6CCN(C7COC7)CC6)ccn45)ncn3)cc2)cn1` [A230, [4-(1-methyl-1H-pyrazol-4-yl)-benzyl]-{6-[7-(4-oxetan-3-yl-piperazin-1-yl)-imidazo[1,2-a]pyridin-3-yl]-pyrimidin-4-yl}-amine] are 63 nM, 24 nM and < 15.
Take `Cc1nnc2n1CCN(CCOc1ccn3c(-c4cc(NCc5ccc(-c6cnn(C)c6)cc5)ncn4)cnc3c1)C2` [A221, (6-{7-[2-(3-methyl-5,6-dihydro-8H-[1,2,4]triazolo[4,3-a]pyrazin-7-yl)-ethoxy]-imidazo[1,2-a]pyridin-3-yl}-pyrimidin-4-yl)-[4-(1-methyl-1H-pyrazol-4-yl)-benzyl]-amine]: the IC50 was determined as 400 nM in data set [1] and 14 nM at c-Kit(V654A). In addition, the efflux ratio at 2 h, 1 μM in data set [2] is > 50.
Regarding `Cn1cc(-c2ccc(CNc3cc(-c4cnc5cc(OCCCn6cccn6)ccn45)ncn3)cc2)cn1` [A257, N-{[4-(1-methyl-1H-pyrazol-4-yl)phenyl]methyl}-6-{7-[3-(1H-pyrazol-1-yl)propoxy]imidazo[1,2-a]pyridin-3-yl}pyrimidin-4-amine], the IC50 in data set [1] is 130 nM; on c-Kit(V654A) it was 16 nM. The efflux ratio at 2 h, 1 μM in data set [2] was < 15.
The corresponding values for `Cn1ncc(-c2ccc(CNc3cc(-c4cnc5cc(OCC6CCN(C7CC7)CC6)ccn45)ncn3)cc2)n1` [A186, {6-[7-(1-cyclopropyl-piperidin-4-ylmethoxy)-imidazo[1,2-a]pyridin-3-yl]-pyrimidin-4-yl}-[4-(2-methyl-2H-[1,2,3]triazol-4-yl)-benzyl]-amine] are 80 nM, 7 nM and < 15.
The corresponding values for `COCCOc1ccn2c(-c3cc(NCc4ccc(-c5cnn6c5CCC6)cc4)ncn3)cnc2c1` [A17, 6-[7-(2-methoxyethoxy)imidazo[1,2-a]pyridin-3-yl]-N-[(4-{4H,5H,6H-pyrrolo[1,2-b]pyrazol-3-yl}phenyl)methyl]pyrimidin-4-amine] are 110 nM, 9.7 nM and < 15.
On to `Cn1cc(-c2ccc(CNc3cc(-c4cnc5cc(OCCC6CCNC6)ccn45)ncn3)cc2)cn1` (stereo not drawn) [A175, [4-(1-methyl-1H-pyrazol-4-yl)-benzyl]-{6-[7-(2-pyrrolidin-3-yl-ethoxy)-imidazo[1,2-a]pyridin-3-yl]-pyrimidin-4-yl}-amine], for which the results for the IC50 (in data set [1]; on c-Kit(V654A)) were 480 nM and 9.8 nM, respectively. In addition, the efflux ratio at 2 h, 1 μM in data set [2] is > 50.
For the compound `COCCn1ncc(-c2ccc(CNc3cc(-c4cnc5cc(OC)ccn45)ncn3)cc2)n1` [A46, N-({4-[2-(2-methoxyethyl)-2H-1,2,3-triazol-4-yl]phenyl}methyl)-6-{7-methoxyimidazo[1,2-a]pyridin-3-yl}pyrimidin-4-amine], the results for the IC50 (in data set [1]; on c-Kit(V654A)) were 95 nM and 6.4 nM, respectively. In addition, in data set [2], the efflux ratio at 2 h, 1 μM was < 15.
The corresponding values for `Cn1cc(-c2ccc(CNc3cc(-c4cnc5cc(OCCN6CCn7nccc7C6)ccn45)ncn3)cc2)cn1` [A216, (6-{7-[2-(6,7-dihydro-4H-pyrazolo[1,5-a]pyrazin-5-yl)-ethoxy]-imidazo[1,2-a]pyridin-3-yl}-pyrimidin-4-yl)-[4-(1-methyl-1H-pyrazol-4-yl)-benzyl]-amine] are 130 nM, 8.2 nM and < 15.
In the case of `Cn1cc(-c2ccc(CNc3cc(-c4cnc5cc(OCCC(C)(C)N)ccn45)ncn3)cc2)cn1` [A223, {6-[7-(3-amino-3-methyl-butoxy)-imidazo[1,2-a]pyridin-3-yl]-pyrimidin-4-yl}-[4-(1-methyl-1H-pyrazol-4-yl)-benzyl]-amine], the IC50 in data set [1] was found to be 190 nM; on c-Kit(V654A), 11 nM. The efflux ratio at 2 h, 1 μM in data set [2] is > 50.
In the case of `Cn1cc(-c2ccc(CNc3cc(-c4cnc5cc(OCC6CNC6)ccn45)ncn3)cc2)cn1` [A167, 6-{7-[(azetidin-3-yl)methoxy]imidazo[1,2-a]pyridin-3-yl}-N-{[4-(1-methyl-1H-pyrazol-4-yl)phenyl]methyl}pyrimidin-4-amine], the IC50 came to 500 nM in data set [1] and 7.5 nM on c-Kit(V654A). In addition, in data set [2], the efflux ratio at 2 h, 1 μM was > 50.
`COc1ccn2c(-c3cc(NCc4ccc(-c5cncn5C)cc4)ncn3)cnc2c1` [A39, 6-{7-methoxyimidazo[1,2-a]pyridin-3-yl}-N-{[4-(1-methyl-1H-imidazol-5-yl)phenyl]methyl}pyrimidin-4-amine]: the IC50 in data set [1] turned out to be 640 nM; at c-Kit(V654A), 27 nM.
With `CCn1cc(-c2ccc(CNc3cc(-c4cnc5cc(OC)ccn45)ncn3)cc2)cn1` [A23, [4-(1-ethyl-1H-pyrazol-4-yl)-benzyl]-[6-(7-methoxy-imidazo[1,2-a]pyridin-3-yl)-pyrimidin-4-yl]-amine], the figures for the IC50 (in data set [1]; on c-Kit(V654A)) were 66 nM and 6.2 nM, respectively.
For the compound `Cn1ncc(-c2ccc(CNc3cc(-c4cnc5cc(OCC(C)(C)N6CCOCC6)ccn45)ncn3)cc2)n1` [A109, {6-[7-(2-methyl-2-morpholin-4-yl-propoxy)-imidazo[1,2-a]pyridin-3-yl]-pyrimidin-4-yl}-[4-(2-methyl-2H-[1,2,3]triazol-4-yl)-benzyl]-amine], the IC50 in data set [1] is 79 nM; on c-Kit(V654A), 7.5 nM.
With `Cn1cc(-c2ccc(CNc3cc(-c4cnc5cc(OCc6nccn6C)ccn45)ncn3)cc2)cn1` [A113, {6-[7-(1-methyl-1H-imidazol-2-ylmethoxy)-imidazo[1,2-a]pyridin-3-yl]-pyrimidin-4-yl}-[4-(1-methyl-1H-pyrazol-4-yl)-benzyl]-amine], the figures for the IC50 (in data set [1]; at c-Kit(V654A)) were 620 nM and 14 nM, respectively.
`Cn1cc(-c2ccc(CNc3cc(-c4cnc5cc(OCCCN6CCC(F)(F)C6)ccn45)ncn3)cc2)cn1` [A101, 6-{7-[3-(3,3-difluoropyrrolidin-1-yl)propoxy]imidazo[1,2-a]pyridin-3-yl}-N-{[4-(1-methyl-1H-pyrazol-4-yl)phenyl]methyl}pyrimidin-4-amine]: the IC50 in data set [1] was 150 nM; on c-Kit(V654A) it was 22 nM.
In the same order, the values of `Cn1cc(-c2ccc(CNc3cc(-c4cnc5cc(CCN6CCC(F)(F)C6)ccn45)ncn3)cc2)cn1` [A169, (6-{7-[2-(3,3-difluoro-pyrrolidin-1-yl)-ethyl]-imidazo[1,2-a]pyridin-3-yl}-pyrimidin-4-yl)-[4-(1-methyl-1H-pyrazol-4-yl)-benzyl]-amine] are 300 nM and 32 nM.
